Experimental findings from publication PMC11044166, “Synthesis, DFT Calculations, In Silico Studies, and Antimicrobial Evaluation of Benzimidazole-Thiadiazole Derivatives” (ACS Omega, 2024) are described below.

≈ marks a conversion by molar mass, not a printed value.

One data set has as its system C. albicans (ATCC 24433). The data set is described as follows: Antifungal microdilution MIC. Format: cell-based. To be noted: Candida albicans, ATCC24433; C. albicans (ATCC 24433); read-out: MIC. The method, then:
(§1) The antifungal and antibacterial activities of the synthesized compounds (5a–i) were evaluated in vitro against E. coli (ATCC 25922), S. marcescens (ATCC 8100), K. pneumoniae (ATCC 13883), P. aeruginosa (ATCC 27853), E. faecalis (ATCC 2942), B. subtilis, S. aureus (ATCC 29213), S. epidermidis (ATCC 12228), C. albicans (ATCC 24433), C. krusei (ATCC 6258), and C. parapsilosis (ATCC 22019). The final synthesized compounds were evaluated as antibacterial and antifungal references, in comparison to azithromycin, voriconazole, and fluconazole. Tables 1 and 2 provide a summary of the antimicrobial activity test results and the minimum inhibitory concentrations (MICs) of the compounds (5a–i).
(§2) The antimicrobial activity of the final compounds (5a–i) was screened against eight species of pathogenic bacteria and […] (E. coli (ATCC 25922), S. marcescens (ATCC 8100), K. pneumonia (ATCC 13883), P. aeruginosa (ATCC 27853), E. faecalis (ATCC 2942), B. subtilis (NRRL NRS 744), S. aureus (ATCC 29213), S. epidermidis (ATCC 12228), C. albicans (ATCC 24433), C. glabrata (ATCC 90030), C. krusei (ATCC 6258), and C. parapsilosis (ATCC 22 019)) according to the microdilution standard methods CLSI M07-A9 (2012) and NCCLS M27-A2 (2002), as described in the previous study.[25],[26]

The subject of the next data set is C. krusei (ATCC 6258). As to the kind of experiment: Antifungal microdilution MIC. Format: cell-based. To be noted: Pichia kudriavzevii, ATCC6258; C. krusei (ATCC 6258); read-out: MIC. How it is done:
as §1, §2

For data set [1], the system named is C. parapsilosis (ATCC 22019). As to the kind of experiment: Antifungal microdilution MIC. Format: cell-based. To be noted: Lodderomyces parapsilosis, ATCC22019; C. parapsilosis (ATCC 22019); read-out: MIC. How it is done:
as §1, §2

Another data set relates to B. subtilis. As to the kind of experiment: Antibacterial microdilution MIC. Format: cell-based. To be noted: Bacillus subtilis; F: B. subtilis, Gram-positive; read-out: MIC. How it is done: as §1, §2
In the next data set the test system is E. coli (ATCC 25922). As to the kind of experiment: Antibacterial microdilution MIC. Format: cell-based. To be noted: Escherichia coli, ATCC25922; A: E. coli (ATCC 25922), Gram-negative; read-out: MIC. The method, then: as §1, §2
The test system of another data set is E. faecalis (ATCC 2942). The data set is described as follows: Antibacterial microdilution MIC. Format: cell-based. To be noted: Enterococcus faecalis, ATCC2942; E: E. faecalis (ATCC 2942), Gram-positive; read-out: MIC. How it is done:
as §1, §2

For data set [2], the system named is K. pneumoniae (ATCC 13883). As to the kind of experiment: Antibacterial microdilution MIC. It is filed as cell-based. To be noted: Klebsiella pneumoniae, ATCC13883; C: K. pneumoniae (ATCC 13883), Gram-negative; read-out: MIC. The method, then: as §1, §2
Data set [3] has as its system P. aeruginosa (ATCC 27853). The data set is described as follows: Antibacterial microdilution MIC. Format: cell-based. To be noted: Pseudomonas aeruginosa, ATCC27853; D: P. aeruginosa (ATCC 27853), Gram-negative; read-out: MIC. How it is done: as §1, §2
In a further data set the test system is S. aureus (ATCC 29213). As to the kind of experiment: Antibacterial microdilution MIC. Format: cell-based. To be noted: Staphylococcus aureus, ATCC29213; G: S. aureus (ATCC 29213), Gram-positive; read-out: MIC. The method, then:
as §1, §2

Data set [4] relates to S. epidermidis (ATCC 12228). As to the kind of experiment: Antibacterial microdilution MIC. It is filed as cell-based. To be noted: Staphylococcus epidermidis, ATCC12228; H: S. epidermidis (ATCC 12228), Gram-positive; read-out: MIC. The method, then:
as §1, §2

Data set [5] has as its system S. marcescens (ATCC 8100). The data set is described as follows: Antibacterial microdilution MIC. Format: cell-based. To be noted: Serratia marcescens, ATCC8100; B: S. marcescens (ATCC 8100), Gram-negative; read-out: MIC. How it is done:
as §1, §2

Data set [6] has as its system L929 fibroblast cell line. As to the kind of experiment: Cytotoxicity MTT assay on healthy cells. It is filed as cell-based. To be noted: L929 healthy mouse fibroblast cells. How it is done: The effect of the compounds between 5a–i on the viability of the L929 cell line was analyzed by MTT assay. The MTT method was performed as previously described.[27]

In the case of `C[C@@H](c1ncncc1F)[C@](O)(Cn1cncn1)c1ccc(F)cc1F` [voriconazole, reference compound], the minimum inhibitory concentration (MIC) (in the data set with C. albicans (ATCC 24433); in the data set on C. krusei (ATCC 6258); in data set [1]) was 3.9 µg/mL (≈ 11.2 µM) throughout.

In turn, `CCNc1nnc(-c2ccc(-c3nc4ccccc4[nH]3)cc2)s1` [Compound 5b, N-Ethyl-5-(4-(1H-Benzo[d]imidazole-2-Yl)phenyl)-1,3,4-Thiadiazole-2-Amine] yielded a melting point of 321.6 °C. Further, the MIC in the data set with C. albicans (ATCC 24433) was determined as 7.81 µg/mL (≈ 24.3 µM). The MIC in the data set with C. krusei (ATCC 6258) was determined as 31.2 µg/mL (≈ 97.2 µM). Also, the MIC in [1] is 15.6 µg/mL (≈ 48.6 µM). Further, the MIC in the data set on B. subtilis is 125 µg/mL (≈ 389 µM). Besides, the MIC in the data set with E. coli (ATCC 25922) worked out at 62.5 µg/mL (≈ 194 µM). Besides, the MIC with E. faecalis (ATCC 2942) was 3.9 µg/mL (≈ 12.1 µM). The MIC in data set [2] was 62.5 µg/mL (≈ 194 µM). Besides, in data set [3], the MIC amounted to 62.5 µg/mL (≈ 194 µM). Moreover, in the data set on S. aureus (ATCC 29213), the minimal inhibitory concentration (MIC) is 31.2 µg/mL (≈ 97.2 µM). Also, the MIC in data set [4] was determined as 31.2 µg/mL (≈ 97.2 µM). Also, the MIC in data set [5] amounted to 62.5 µg/mL (≈ 194 µM). Besides, in data set [6], half-maximal inhibition (IC50) required 119 ± 9.64 µM.

With `CC[C@H]1OC(=O)[C@H](C)[C@@H](O[C@H]2C[C@@](C)(OC)[C@@H](O)[C@H](C)O2)[C@H](C)[C@@H](O[C@@H]2O[C@H](C)C[C@H](N(C)C)[C@H]2O)[C@](C)(O)C[C@@H](C)CN(C)[C@H](C)[C@@H](O)[C@]1(C)O` [azithromycin, reference compound], the minimal inhibitory concentration (MIC) (with B. subtilis; in the data set with E. coli (ATCC 25922); in the data set with E. faecalis (ATCC 2942); in data set [2]; in data set [3]; with S. aureus (ATCC 29213)) was less than 0.97 µg/mL in each case. The minimal inhibitory concentration (MIC) in data set [4] and in [5] was less than 0.97 µg/mL each time.

Regarding `CCCNc1nnc(-c2ccc(-c3nc4ccccc4[nH]3)cc2)s1` [Compound 5g, N-Propyl-5-(4-(1H-Benzo[d]imidazole-2-Yl)phenyl)-1,3,4-Thiadiazole-2-Amine], the melting point came to 275.2 °C. For the same compound, the MIC in the data set on C. albicans (ATCC 24433) came out at 7.81 µg/mL (≈ 23.3 µM). The MIC in the data set on C. krusei (ATCC 6258) was found to be 125 µg/mL (≈ 373 µM). Besides, the MIC in [1] is 125 µg/mL (≈ 373 µM). Further, the MIC with B. subtilis is 125 µg/mL (≈ 373 µM). In addition, in the data set on E. coli (ATCC 25922), the minimum inhibitory concentration (MIC) came to 125 µg/mL (≈ 373 µM). For the same compound, the MIC with E. faecalis (ATCC 2942) was 15.6 µg/mL (≈ 46.6 µM). Further, the MIC in [2] turned out to be 125 µg/mL (≈ 373 µM). The MIC in [3] amounted to 125 µg/mL (≈ 373 µM). In addition, the minimum inhibitory concentration (MIC) in the data set with S. aureus (ATCC 29213) amounted to 31.2 µg/mL (≈ 93.2 µM). Further, the MIC in data set [4] came to 31.2 µg/mL (≈ 93.2 µM). In [5], the minimal inhibitory concentration (MIC) was 250 µg/mL (≈ 745 µM).

Compound `CNc1nnc(-c2ccc(-c3nc4ccccc4[nH]3)cc2)s1` [Compound 5a, N-Methyl-5-(4-(1H-Benzo[d]imidazole-2-Yl)phenyl)-1,3,4-Thiadiazole-2-Amine] returned a melting point of 325.6 °C. Besides, the MIC in the data set with C. albicans (ATCC 24433) stood at 31.2 µg/mL (≈ 102 µM). Moreover, the minimum inhibitory concentration (MIC) in the data set with C. krusei (ATCC 6258) came to 125 µg/mL (≈ 407 µM). Further, the minimal inhibitory concentration (MIC) in data set [1] was 125 µg/mL (≈ 407 µM). Also, in the data set with B. subtilis, the minimal inhibitory concentration (MIC) was 125 µg/mL (≈ 407 µM). Further, the minimum inhibitory concentration (MIC) in the data set with E. coli (ATCC 25922) is 250 µg/mL (≈ 813 µM). In the data set with E. faecalis (ATCC 2942), the MIC was 3.9 µg/mL (≈ 12.7 µM). Further, the minimum inhibitory concentration (MIC) in data set [2] was determined as 125 µg/mL (≈ 407 µM). Moreover, the MIC in data set [3] came out at 62.5 µg/mL (≈ 203 µM). The minimum inhibitory concentration (MIC) in the data set on S. aureus (ATCC 29213) came to 7.81 µg/mL (≈ 25.4 µM). Moreover, in [4], the MIC worked out at 7.81 µg/mL (≈ 25.4 µM). In addition, the MIC in data set [5] amounted to 62.5 µg/mL (≈ 203 µM). Moreover, in [6], inhibition was half-maximal at 152 ± 3.64 µM (IC50).
